# Marks after values point to notes of the source that are not given here.
# How the values were obtained:
# APOE*3Leiden.CETP mice = test: Hepatocellular hypertrophy grading in APOE*3Leiden.CETP double transgenic mice; type: in vivo, mouse; conditions: APOE*3Leiden.CETP mice on high fat/cholesterol diet; 0.3 mmol/kg bw per day by gavage; 20 weeks
# Text: The APOE*3Leiden.CETP double transgenic mouse expresses a variant of the human apolipoprotein E3 (APOE3), the APOE*3Leiden, in addition to the human apolipoprotein C1 (APOC1) and CETP. […] By increasing the cholesterol content of the diet in this model, all the characteristics of human NASH develop.
# In one study (using 1% cholesterol w/w), after a 3 weeks run-in period low-responder mice (20% of total) were removed from the study and the remaining mice were sub-divided into 4 groups of 12 mice each (+5 in the control group), matched for plasma cholesterol, triglycerides, blood glucose, body weight and age (t=0) and treatment was started. The mice received a daily gavage between 07hr00 and 10hr00 with either Compound A at 0.3 mmol/kg bw per day, the comparison compound Compound N (0.3 mmol/kg bw per day), rosiglitazone (13 mg/kg bw per day) or control (corn oil). After 20 weeks of treatment mice were sacrificed by CO2 asphyxiation, the liver was collected and the level of hepatocellular hypertrophy was graded.
# TNF-α mRNA = test: Hepatic TNF-α mRNA expression by qPCR, CDAA/high-fat diet mouse model; type: in vivo; conditions: CDAA/high-fat fed mice
# Text: Mice were fed either choline-sufficient (CS) or choline deficient high-fat diets (31% total calories; “CDAA/high-fat”). The NASH inducing diet was instigated 6 weeks prior to the commencement of treatment in order to design the study as a treatment/reversal set-up rather than prophylaxis.
# After 6 weeks of either the CS- or CDAA diet, mice were orally administered Compound A or comparison Compound N, both at 2 doses, 0.15 mmol/kg bw/day (low-dose, LD) and 0.3 mmol/kg bw per day (high-dose, HD). The test substances were administered orally as admix to the high-fat diet. Hepatic fibrosis was assessed by both measurement of hydroxyproline (HYP) content and Sirius Red (SR) morphometry. Fibrosis, inflammation and metabolism related transcripts levels were measured by quantitative real-time polymerase chain reaction (qPCR).
# Studies were performed in male C56BL/6J mice (9 weeks old). Mice were divided into 6 experimental groups (n=9 per group) containing either CS or CDAA/high-fat diets, as described above. The NASH inducing CDAA/high fat diet was instigated 6 weeks prior to the commencement of treatment in order to assess treatment/reversal rather than prophylaxis. […] Compound A was administered orally as admix to the high-fat diet whilst GLP-1 agonist was delivered via intraperitoneal injection (i.p.). Fibrosis, inflammation and metabolism related transcripts levels were measured by quantitative real-time polymerase chain reaction (qPCR) in isolated liver tissue.
# [1] = tested on: LX-2 human hepatic stellate cells; test: LX-2 stellate cell proliferation by BrdU incorporation; type: cell-based; conditions: LX-2 cells, 24 hours
# Method: (§1) Stellate cells are resident liver cells and the major cell type involved in the initiation and progression of liver fibrosis. In Biological Example 20, in vitro studies were performed on cultured human stellate cells (LX-2 cells) to assess direct effects of Compound A on these cells. Cells were treated for 24 hours with Compound A (10 μM, 25 μM, 50 μM, or 75 μM) or oleic acid (OA; 75 μM) and bromodeoxyuridine (BrdU) incorporation was assessed to determine effects on proliferation. A MTS (3-(4,5-dimethylthiazol-2-yl)-5-(3-carboxymethoxyphenyl)-2-(4-sulfophenyl)-2H-tetrazolium) assay was used to determine cell viability.
# (§2) Cell proliferation of LX-2 human hepatic stellate cells treated for 24 hours with 10-75 μM of Compound A or oleic acid (OA) (75 μM) was assessed by BrdU incorporation. The results are normalised mean values ±S.E.M. of 5 independent experiments for icosabutate and 2 independent experiments for OA. […] The reduction in proliferation by Compound A was 25-34% at 24 hours whereas OA had no effect. The comparisons were made by one-way ANOVA with Dunnett's correction for multiple comparisons.
# [2] = tested on: α-smooth muscle actin (SMA); test: Hepatic α-SMA content by quantitative IHC in ob/ob AMLN mice; type: in vivo, mouse; conditions: 8 weeks; for α-SMA (total and % of fractional area content): vs vehicle
# Method: (§3) Obese diet-induced B6.V-Lepob/Jrj mice (ob/ob) are consistently fibrosis (liver) prone when cholesterol (2%), 40% fat (containing 18% trans-fatty acids) and 20% fructose are added to a high-caloric diet (i.e., AMLN high-fat diet). ob/ob mice on AMLN diet (termed ‘ob/ob AMLN mice’) develop steatohepatitis and fibrosis within a shorter timeframe ([…]) compared with wild-type C57BL/6 mice (AMLN mice) fed the same diet. ob/ob AMLN mice provide an obese diet-induced model of NASH that also allows the study of effects on glycemic control. Development of NASH in the ob/ob AMLN model is confirmed by biopsy.
# (§4) In Biological Examples 10, 13-14, and 16-18, studies were performed in male ob/ob mice (5 weeks old) fed an AMLN high-fat diet for 18 weeks, then randomized into 6 groups (n=10 per group) to receive either Compound A (at 3 different daily doses, 45 mg/kg, 90 mg/kg or 135 mg/kg) via diet, 30 mg/kg bw per day obeticholic acid (OCA) via diet, or no treatment (vehicle) for a further 8 weeks. Assessment of NASH related parameters and fibrosis was made at study end by quantitative immune histochemistry (IHC) measurements.
# galectin-3 (Gal-3) = test: Hepatic galectin-3 (Gal-3) levels by IHC in ob/ob AMLN mice; type: in vivo, mouse; conditions: 8 weeks, Compound A 45, 90, 135 mg/kg
# Method: as §3, §4
# To assess the effects of 8 weeks treatment with either Compound A (45 mg/kg, 90 mg/kg, or 135 mg/kg) or OCA (30 mg/kg) on hepatic inflammation in ob/ob AMLN mice, IHC was performed to assess galectin-3 (Gal-3) levels.
# [3] = tested on: LX-2 human hepatic stellate cells; test: LX-2 cell viability by MTS assay; type: cell-based; conditions: LX-2 cells; 24 hours; Compound A 10-75 μM, OA 75 μM
# Method: as §1, §2
# ob/ob AMLN mice = test: Hepatic hydroxyproline (HYP) content in ob/ob AMLN mice; type: in vivo, mouse; conditions: 8 weeks; for HYP content, total: p<0.01; for HYP content, relative: p<0.05
# Method: as §3, §4
# To corroborate the anti-fibrotic effects seen with quantitative IHC, hepatic concentrations of hydroxyproline (HYP) were measured, as shown in FIG. 6E and FIG. 6F.
structure (smiles),measurement,setting,value
"CC/C=C\C/C=C\C/C=C\C/C=C\C/C=C\CCCCOC(CC)C(=O)O (stereo not drawn) [Compound A, 2-((5Z,8Z,11Z,14Z,17Z)-icosa-5,8,11,14,17-pentaenyloxy)butanoic acid]",Decrease in hypertrophy vs. control (%),APOE*3Leiden.CETP mice,83* %
same,Hepatocellular hypertrophy,APOE*3Leiden.CETP mice,8.9 ± 5.9
same,TNF-α (relative mRNA expression),"TNF-α mRNA; Compound A 0.3 mmol/kg bw/day oral, GLP-1a 0.4 mg/kg once weekly i.p., alone or combined",0.65***
same,TNF-a (relative mRNA expression),TNF-α mRNA; HD 0.3 mmol/kg bw per day,0.65***
same,TNF-a (relative mRNA expression),TNF-α mRNA; LD 0.15 mmol/kg bw/day,0.75***
same,proliferation (BrdU incorporation) compared to OA or vehicle,"[1]; 25 μM, p<0.005",less proliferative
same,proliferation (BrdU incorporation) compared to OA or vehicle,"[1]; 50 μM, p<0.0001",less proliferative
same,proliferation (BrdU incorporation) compared to OA or vehicle,"[1]; 75 μM, p<0.005",less proliferative
same,reduction in proliferation (BrdU incorporation),[1]; Compound A 25-75 μM,25-34%
same,area percentage of α-SMA content compared to pre-treatment biopsy,[2]; Compound A 45 mg/kg,non-significant trend
same,area percentage of α-SMA content compared to pre-treatment biopsy,[2]; Compound A 90 mg/kg,non-significant trend
same,α-SMA (total and % of fractional area content),[2]; Compound A 90 mg/kg,markedly reduced
same,area percentage of α-SMA content compared to pre-treatment biopsy,[2]; Compound A 135 mg/kg,decreased
same,α-SMA (total and % of fractional area content),[2]; Compound A 135 mg/kg,markedly reduced
same,"Gal-3 expression level, percentage of area",galectin-3 (Gal-3),dose responsive reduction
same,"Gal-3 expression level, total content",galectin-3 (Gal-3); OCA 30 mg/kg,dose responsive reduction
same,cell viability (MTS assay),[3],neither Compound A nor OA showed a significant effect
same,"HYP content, total",ob/ob AMLN mice; Compound A 90 mg/kg,reduced
same,"HYP content, relative",ob/ob AMLN mice; Compound A 90 mg/kg,reduced
same,"HYP content, total",ob/ob AMLN mice; Compound A 135 mg/kg,reduced
same,"HYP content, relative",ob/ob AMLN mice; Compound A 135 mg/kg,reduced
